Assay results published in article PMC6150239 (Molecules : A Journal of Synthetic Chemistry and Natural …, 2017).

How the values were obtained:
[1] = set-up: method as in PMID 27079428; conditions: cited from earlier work
[2] = Human liver microsome stability assay; type: in vitro ADME; conditions: human liver microsomes, 1 μM, 37 °C; CLint = k/P

| SMILES | t1/2 [1] | CLint (intrinsic clearance) [2] |
| --- | --- | --- |
| COc1cc2c(cc1OC)C1CC(=O)C(CC(C)C)CN1CC2 (stereo not drawn) [tetrabenazine] | 4.8 h |  |
| C[C@]12CC[C@H]3[C@@H](CCC4=CC(=O)CC[C@@]43C)[C@@H]1CC[C@@H]2O [Testosterone, testosterone, reference compound] |  | 0.0727 mL/min/mg Protein |
| [2H]C([2H])([2H])Oc1cc2c(cc1OC([2H])([2H])[2H])C1CC(=O)C(CC(C)C)CN1CC2 (stereo not drawn) [deutetrabenazine] | 8.6 h |  |
